Results: US12102644B2, “Compounds and methods of promoting myelination” (Case Western Reserve University, priority 2019, dated 2024)

Assays:
[1] = test system: mouse brain sterol levels; test: Analysis of mouse brain sterol levels (GC/MS); assay type: in vivo; settings: ifenprodil 10 mg per kg, tamoxifen 2 mg per kg, daily, 3 days
LPC-lesioned spinal cord = test: LPC focal demyelination of spinal cord, remyelination histology; assay type: in vivo, mouse; settings: ifenprodil 10 mg per kg or tamoxifen 2 mg per kg, daily i.p., 8 days from day 4 after lesion
[2] = test system: human induced pluripotent stem cell-derived cortical spheroids; test: Sterol profiling in human iPSC-derived cortical spheroids; assay type: cell-based
[3] = test system: human myelinating cortical spheroids; test: MyRF+ oligodendrocytes in human myelinating cortical spheroids; assay type: cell-based; settings: spheroids treated 10 days from day 62, stained day 93
Procedure: Spheroids at day 62 were treated with the indicated small molecules for 10 days and stained at day 93. Four spheroids were analyzed per treatment condition, and four fields per organoid were used in the quantitation. f) Representative images of spheroids. Nuclei are labeled with DAPI (blue), and oligodendrocytes are immunostained for MyRF (red). Scale bar, 100 μm.

[4] = mouse; cited from earlier work

CC(C(O)c1ccc(O)cc1)N1CCC(Cc2ccccc2)CC1 (centres unmarked) [ifenprodil, Ifenprodil]
8,9-unsaturated sterols in mouse CNS [1]: induced significant accumulation of 8,9-unsaturated sterols in vivo in the CNS
remyelination of LPC lesion (LPC-lesioned spinal cord): remyelination was widespread throughout the lesion
8,9-unsaturated sterol accumulation in human cortical spheroids [2]: led to 8,9-unsaturated sterol accumulation
formation of MyRF-positive human oligodendrocytes [3]: enhanced the formation of myelin regulatory factor (MyRF)-positive human oligodendrocytes
blood brain barrier penetration [4]: known to cross the mouse blood brain barrier
